Numbered stars: 1 amine (or outer) side, 2 acyl side, 3 side chain; on linkers, the order of the positions; unused ones are H or OH. Square brackets hold non-standard residues; d marks the D form. Side chains are listed from the residue outwards. Peptide text beside a SMILES is read from it. * marks the point of attachment. γGlu = O=C(O)[C@H](CCC(=O)[*:2])N[*:1]; Palmitoyl = CCCCCCCCCCCCCCCC(=O)*; Aib = CC(C)(N)C(=O)O
Assays:
[1] = Solubility assessment (UPLC-UV); format: physicochemical; conditions: acetate buffer pH 4.5, 2.7 mg/ml m-cresol (buffer system A), target 10 mg/ml
Summary of the method: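 Peptides at 10 mg/mL (purity-corrected, by UPLC/MS) in 100 mM acetate buffer pH 4.5 with 2.7 mg/ml m-Cresol, gently agitated 1 hour, then centrifuged 15 min at 2500 RCF. Supernatant, diluted 1:10, quantified by UPLC-UV peak area against a reference peptide standard curve, extinction-coefficient corrected.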

[2] = target: T1, human GLP-1 receptor (hGLP-1 R) (Homo sapiens, UniProt P43220); assay: cAMP response (HTRF) of HEK-293 cells stably expressing human GLP-1 receptor; format: cell-based; conditions: Table 8; cAMP formation
T1 construct: expressed in transfected cells; host or cells: HEK-293
T1 sequence (P43220 24-463): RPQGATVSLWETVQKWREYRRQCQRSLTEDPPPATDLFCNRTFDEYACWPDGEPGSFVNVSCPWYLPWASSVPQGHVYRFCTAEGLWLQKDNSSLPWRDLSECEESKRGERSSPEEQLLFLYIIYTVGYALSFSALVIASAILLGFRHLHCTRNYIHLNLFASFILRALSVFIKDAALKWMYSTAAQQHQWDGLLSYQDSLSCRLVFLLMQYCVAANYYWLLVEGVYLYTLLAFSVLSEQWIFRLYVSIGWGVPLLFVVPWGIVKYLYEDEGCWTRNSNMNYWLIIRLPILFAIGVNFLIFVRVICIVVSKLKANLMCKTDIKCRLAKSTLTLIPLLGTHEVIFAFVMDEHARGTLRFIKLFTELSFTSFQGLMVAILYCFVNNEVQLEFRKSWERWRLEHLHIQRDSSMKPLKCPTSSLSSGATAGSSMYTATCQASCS
Procedure: cAMP content of cells was determined using a kit from Cisbio Corp. (cat. no. 62AM4PEJ) based on HTRF (Homogenous Time Resolved Fluorescence). For preparation, cells were split into T175 culture flasks and grown overnight to near confluency in medium (DMEM/10% FBS). Medium was then removed and cells washed with PBS lacking calcium and magnesium, followed by proteinase treatment with accutase (Sigma-Aldrich cat. no. A6964). Detached cells were washed and resuspended in assay buffer (1×HBSS; 20 mM HEPES, 0.1% BSA, 2 mM IBMX) and cellular density determined. They were then diluted to 400000 cells/ml and 25 μl-aliquots dispensed into the wells of 96-well plates. For measurement, 25 μl of test compound in assay buffer was added to the wells, followed by incubation for 30 minutes at room temperature.
Potencies of peptidic compounds at the GLP-1, glucagon and GIP receptors were determined by exposing cells expressing human glucagon receptor (hGlucagon R), human GIP receptor (hGIP-R) or human GLP-1 receptor (hGLP-1 R) to the listed compounds at increasing concentrations and measuring the formed cAMP as described in Methods.

Structure (SMILES)	solubility at 1 h [1] [µg/mL]	EC50 [2] [pM]
CCCCCCCCCCCCCCCC(=O)N[C@@H](CCC(=O)N[C@@H](CCC(=O)NCCCC[C@H](NC(=O)[C@H](CC(C)C)NC(=O)[C@H](CCCCN)NC(=O)[C@H](CO)NC(=O)[C@H](CC(C)C)NC(=O)[C@H](CC(=O)O)NC(=O)[C@H](CO)NC(=O)[C@@H](NC(=O)[C@H](Cc1ccccc1)NC(=O)[C@@H](NC(=O)CNC(=O)[C@H](CCC(N)=O)NC(=O)C(C)(C)NC(=O)[C@@H](N)Cc1c[nH]cn1)[C@@H](C)O)[C@@H](C)O)C(=O)N[C@@H](CCC(=O)O)C(=O)N[C@@H](CCC(=O)O)C(=O)N[C@@H](CCC(N)=O)C(=O)N[C@@H](CCCNC(=N)N)C(=O)N[C@@H](CCC(N)=O)C(=O)NC(C)(C)C(=O)N[C@@H](CCC(=O)O)C(=O)N[C@@H](Cc1ccccc1)C(=O)N[C@H](C(=O)N[C@@H](CCC(=O)O)C(=O)N[C@@H](Cc1c[nH]c2ccccc12)C(=O)N[C@@H](CC(C)C)C(=O)N[C@@H](CCCCN)C(=O)N[C@@H](C)C(=O)NCC(=O)NCC(=O)N[C@@H](Cc1c[nH]cn1)C(=O)N1CCC[C@H]1C(=O)N[C@@H](CO)C(=O)NC(C)(C)C(=O)N[C@@H](CCCCN)C(=O)N1CCC[C@H]1C(=O)N1CCC[C@H]1C(=O)N1CCC[C@H]1C(=O)N[C@@H](CCCCN)C(N)=O)[C@@H](C)CC)C(=O)O)C(=O)O [SEQ ID NO: 8, H-Aib-Q-G-T-F-T-S-D-L-S-K-L-K[gGlu-gGlu-Palm]-E-E-Q-R-Q-Aib-E-F-I-E-W-L-K-A-G-G-H-P-S-Aib-K-P-P-P-K-NH2]	> 10000	
CCCCCCCCCCCCCCCC(=O)N[C@@H](CCC(=O)N[C@@H](CCC(=O)NCCCC[C@H](NC(=O)[C@H](CC(C)C)NC(=O)[C@H](CCCCN)NC(=O)[C@H](CO)NC(=O)[C@H](CC(C)C)NC(=O)[C@H](CC(=O)O)NC(=O)[C@H](CO)NC(=O)[C@@H](NC(=O)[C@H](Cc1ccccc1)NC(=O)[C@@H](NC(=O)CNC(=O)[C@H](CCC(N)=O)NC(=O)C(C)(C)NC(=O)[C@@H](N)Cc1c[nH]cn1)[C@@H](C)O)[C@@H](C)O)C(=O)N[C@@H](CCC(=O)O)C(=O)N[C@@H](CCCCN)C(=O)N[C@@H](CCC(N)=O)C(=O)N[C@@H](CCCNC(=N)N)C(=O)N[C@@H](CCC(N)=O)C(=O)NC(C)(C)C(=O)N[C@@H](CCC(=O)O)C(=O)N[C@@H](Cc1ccccc1)C(=O)N[C@H](C(=O)N[C@@H](CCC(=O)O)C(=O)N[C@@H](Cc1c[nH]c2ccccc12)C(=O)N[C@@H](CC(C)C)C(=O)N[C@@H](CCCCN)C(=O)N[C@@H](C)C(=O)NCC(=O)NCC(=O)N1CCC[C@H]1C(=O)N1CCC[C@H]1C(=O)N[C@@H](CO)C(=O)NC(C)(C)C(=O)N[C@@H](CCCCN)C(=O)N1CCC[C@H]1C(=O)N1CCC[C@H]1C(=O)N1CCC[C@H]1C(=O)N[C@@H](CCCCN)C(N)=O)[C@@H](C)CC)C(=O)O)C(=O)O [SEQ ID NO: 6, H-Aib-Q-G-T-F-T-S-D-L-S-K-L-K[gGlu-gGlu-Palm]-E-K-Q-R-Q-Aib-E-F-I-E-W-L-K-A-G-G-P-P-S-Aib-K-P-P-P-K-NH2]	> 9600	
CCCCCCCCCCCCCCCC(=O)N[C@@H](CCC(=O)N[C@@H](CCC(=O)NCCCC[C@H](NC(=O)[C@H](CC(C)C)NC(=O)[C@H](CCCCN)NC(=O)[C@H](CO)NC(=O)[C@H](CC(C)C)NC(=O)[C@H](CC(=O)O)NC(=O)[C@H](CO)NC(=O)[C@@H](NC(=O)[C@H](Cc1ccccc1)NC(=O)[C@@H](NC(=O)CNC(=O)[C@H](CCC(N)=O)NC(=O)C(C)(C)NC(=O)[C@@H](N)Cc1c[nH]cn1)[C@@H](C)O)[C@@H](C)O)C(=O)N[C@@H](CCC(=O)O)C(=O)N[C@@H](CCCCN)C(=O)N[C@@H](CCC(N)=O)C(=O)N[C@@H](CCCNC(=N)N)C(=O)N[C@@H](CCC(N)=O)C(=O)NC(C)(C)C(=O)N[C@@H](CCC(=O)O)C(=O)N[C@@H](Cc1ccccc1)C(=O)N[C@H](C(=O)N[C@@H](CCC(=O)O)C(=O)N[C@@H](Cc1c[nH]c2ccccc12)C(=O)N[C@@H](CC(C)C)C(=O)N[C@@H](CCCCN)C(=O)N[C@@H](C)C(=O)N[C@H](C)C(=O)NCC(=O)N1CCC[C@H]1C(=O)N1CCC[C@H]1C(=O)N[C@@H](CO)C(=O)NC(C)(C)C(=O)N[C@@H](CCCCN)C(=O)N1CCC[C@H]1C(=O)N1CCC[C@H]1C(=O)N1CCC[C@H]1C(=O)N[C@@H](CCCCN)C(N)=O)[C@@H](C)CC)C(=O)O)C(=O)O [SEQ ID NO: 7, H-Aib-Q-G-T-F-T-S-D-L-S-K-L-K[gGlu-gGlu-Palm]-E-K-Q-R-Q-Aib-E-F-I-E-W-L-K-A-dAla-G-P-P-S-Aib-K-P-P-P-K-NH2] (H-H[Aib]QGTFTSDLSKLK([γGlu-γGlu-Palmitoyl])EKQRQ[Aib]EFIEWLKA[dA]GPPS[Aib]KPPPK-NH2)	> 9900	

Results, then the compound that gave them:

solubility at 1 h [1] [µg/mL]	EC50 [2] [pM]	Structure (SMILES)
> 10100	2.4	CCCCCCCCCCCCCCCC(=O)N[C@@H](CCC(=O)N[C@@H](CCC(=O)NCCCC[C@H](NC(=O)[C@H](CC(C)C)NC(=O)[C@H](CCCCN)NC(=O)[C@H](CO)NC(=O)[C@H](CC(C)C)NC(=O)[C@H](CC(=O)O)NC(=O)[C@H](CO)NC(=O)[C@@H](NC(=O)[C@H](Cc1ccccc1)NC(=O)[C@@H](NC(=O)CNC(=O)[C@H](CCC(N)=O)NC(=O)C(C)(C)NC(=O)[C@@H](N)Cc1c[nH]cn1)[C@@H](C)O)[C@@H](C)O)C(=O)N[C@@H](CCC(=O)O)C(=O)N[C@@H](CCC(=O)O)C(=O)N[C@@H](CCC(N)=O)C(=O)N[C@@H](CCCNC(=N)N)C(=O)N[C@@H](CCC(N)=O)C(=O)NC(C)(C)C(=O)N[C@@H](CCC(=O)O)C(=O)N[C@@H](Cc1ccccc1)C(=O)N[C@H](C(=O)N[C@@H](CCC(=O)O)C(=O)N[C@@H](Cc1c[nH]c2ccccc12)C(=O)N[C@@H](CC(C)C)C(=O)N[C@@H](CCCCN)C(=O)N[C@@H](C)C(=O)N[C@H](C)C(=O)NCC(=O)N1CCC[C@H]1C(=O)N1CCC[C@H]1C(=O)N[C@@H](CO)C(=O)NC(C)(C)C(=O)N[C@@H](CCCCN)C(=O)N1CCC[C@H]1C(=O)N1CCC[C@H]1C(=O)N1CCC[C@H]1C(=O)N[C@@H](CCCCN)C(N)=O)[C@@H](C)CC)C(=O)O)C(=O)O [SEQ ID NO: 10, H-Aib-Q-G-T-F-T-S-D-L-S-K-L-K[gGlu-gGlu-Palm]-E-E-Q-R-Q-Aib-E-F-I-E-W-L-K-A-dAla-G-P-P-S-Aib-K-P-P-P-K-NH2] (H-H[Aib]QGTFTSDLSKLK([γGlu-γGlu-Palmitoyl])EEQRQ[Aib]EFIEWLKA[dA]GPPS[Aib]KPPPK-NH2)
> 9300		CCCCCCCCCCCCCCCC(=O)N[C@@H](CCC(=O)N[C@@H](CCC(=O)NCCCC[C@H](NC(=O)[C@H](CC(C)C)NC(=O)[C@H](CCCCN)NC(=O)[C@H](CO)NC(=O)[C@H](CC(C)C)NC(=O)[C@H](CC(=O)O)NC(=O)[C@H](CO)NC(=O)[C@@H](NC(=O)[C@H](Cc1ccccc1)NC(=O)[C@@H](NC(=O)CNC(=O)[C@H](CCC(N)=O)NC(=O)C(C)(C)NC(=O)[C@@H](N)Cc1c[nH]cn1)[C@@H](C)O)[C@@H](C)O)C(=O)N[C@@H](CCC(=O)O)C(=O)N[C@@H](CCCCN)C(=O)N[C@@H](CCC(N)=O)C(=O)N[C@@H](CCCNC(=N)N)C(=O)N[C@@H](CCC(N)=O)C(=O)NC(C)(C)C(=O)N[C@@H](CCC(=O)O)C(=O)N[C@@H](Cc1ccccc1)C(=O)N[C@H](C(=O)N[C@@H](CCC(=O)O)C(=O)N[C@@H](Cc1c[nH]c2ccccc12)C(=O)N[C@@H](CC(C)C)C(=O)N[C@@H](CCCCN)C(=O)N[C@@H](C)C(=O)N[C@H](C)C(=O)NCC(=O)N[C@@H](Cc1c[nH]cn1)C(=O)N1CCC[C@H]1C(=O)N[C@@H](CO)C(=O)NC(C)(C)C(=O)N[C@@H](CCCCN)C(=O)N1CCC[C@H]1C(=O)N1CCC[C@H]1C(=O)N1CCC[C@H]1C(=O)N[C@@H](CCCCN)C(N)=O)[C@@H](C)CC)C(=O)O)C(=O)O [SEQ ID NO: 13, H-Aib-Q-G-T-F-T-S-D-L-S-K-L-K[gGlu-gGlu-Palm]-E-K-Q-R-Q-Aib-E-F-I-E-W-L-K-A-dAla-G-H-P-S-Aib-K-P-P-P-K-NH2] (H-H[Aib]QGTFTSDLSKLK([γGlu-γGlu-Palmitoyl])EKQRQ[Aib]EFIEWLKA[dA]GHPS[Aib]KPPPK-NH2)
